Source: ChEMBL document CHEMBL3822397, “Synthesis and bioevaluation of novel benzodipyranone derivatives as P-glycoprotein inhibitors for multidrug resistance reversal agents” (Eur J Med Chem, 2016)

How the values were obtained:
[1] = biological target: T1, ATP-dependent translocase ABCB1 (Homo sapiens, UniProt P08183); test: Inhibition of full length human ABCB1 expressed in Flp-In-293 cells at 2.5 uM incubated for 30 mins by calcein-AM uptake assay relative to control; format: cell-based; conditions: 0.5 h
[2] = biological target: T1, ATP-dependent translocase ABCB1; test: Inhibition of full length human ABCB1 expressed in Flp-In-293 cells at 5 uM incubated for 30 mins by calcein-AM uptake assay relative to control; format: cell-based; conditions: 0.5 h

T1 sequence (P08183 whole entry): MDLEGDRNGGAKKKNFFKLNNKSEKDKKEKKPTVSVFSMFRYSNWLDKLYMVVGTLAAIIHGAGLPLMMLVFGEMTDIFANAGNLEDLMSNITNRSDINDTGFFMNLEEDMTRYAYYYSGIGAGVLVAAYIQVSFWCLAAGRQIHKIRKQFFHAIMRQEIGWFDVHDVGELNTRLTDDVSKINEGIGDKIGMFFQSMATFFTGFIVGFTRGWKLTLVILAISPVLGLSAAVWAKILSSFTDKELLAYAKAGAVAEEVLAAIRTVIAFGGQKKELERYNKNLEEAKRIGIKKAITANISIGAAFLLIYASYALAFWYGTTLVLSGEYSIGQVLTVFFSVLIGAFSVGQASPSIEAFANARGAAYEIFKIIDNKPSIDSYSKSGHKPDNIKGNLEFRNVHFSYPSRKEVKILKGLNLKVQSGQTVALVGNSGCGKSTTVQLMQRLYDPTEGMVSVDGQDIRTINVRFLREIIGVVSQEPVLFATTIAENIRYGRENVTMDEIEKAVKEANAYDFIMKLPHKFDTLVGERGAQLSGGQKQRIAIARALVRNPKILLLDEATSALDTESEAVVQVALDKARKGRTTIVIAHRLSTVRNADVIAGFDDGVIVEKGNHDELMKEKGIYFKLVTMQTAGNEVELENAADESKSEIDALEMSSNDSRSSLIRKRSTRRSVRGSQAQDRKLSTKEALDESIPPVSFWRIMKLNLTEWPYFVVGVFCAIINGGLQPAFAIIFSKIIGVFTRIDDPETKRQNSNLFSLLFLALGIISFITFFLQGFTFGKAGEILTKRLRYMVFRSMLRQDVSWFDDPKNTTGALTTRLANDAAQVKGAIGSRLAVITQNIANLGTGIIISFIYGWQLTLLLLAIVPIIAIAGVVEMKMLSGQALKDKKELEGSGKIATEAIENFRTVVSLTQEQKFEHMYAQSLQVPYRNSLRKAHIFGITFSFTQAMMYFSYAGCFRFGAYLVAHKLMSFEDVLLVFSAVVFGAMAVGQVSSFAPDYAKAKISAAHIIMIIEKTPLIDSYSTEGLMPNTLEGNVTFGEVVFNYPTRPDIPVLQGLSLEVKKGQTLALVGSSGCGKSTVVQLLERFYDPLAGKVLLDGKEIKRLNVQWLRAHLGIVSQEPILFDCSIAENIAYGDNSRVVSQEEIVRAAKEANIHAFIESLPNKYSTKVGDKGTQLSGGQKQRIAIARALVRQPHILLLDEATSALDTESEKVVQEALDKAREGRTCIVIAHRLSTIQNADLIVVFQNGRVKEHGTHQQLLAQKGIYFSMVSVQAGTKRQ

fold change (FC) [1]	fold change (FC) [2]	SMILES
0.76	0.82	COc1ccccc1-c1coc2cc3occ(-c4ccccc4OC)c(=O)c3c(O)c2c1=O
0.86	0.86	O=c1c(C2CC2)coc2cc3occ(C4CC4)c(=O)c3c(O)c12
0.5	0.87	O=c1c(-c2cccc(Cl)c2)coc2cc3occ(-c4cccc(Cl)c4)c(=O)c3c(O)c12
1.4	1.56	COc1ccccc1-c1coc2c(c(O)cc3occ(-c4ccccc4OC)c(=O)c32)c1=O
1.19	1.28	COc1cccc(-c2coc3c(c(O)cc4occ(-c5cccc(OC)c5)c(=O)c43)c2=O)c1
0.98	1.09	O=c1c(-c2ccccc2Cl)coc2c1c(O)cc1occ(-c3ccccc3Cl)c(=O)c12
1.15	1.53	Cc1ccccc1-c1coc2c(c(O)cc3occ(-c4ccccc4C)c(=O)c32)c1=O
0.97	1.04	O=c1c(-c2ccc(OC(F)(F)F)cc2)coc2c1c(O)cc1occ(-c3ccc(OC(F)(F)F)cc3)c(=O)c12
0.96	0.82	O=c1c(-c2cccc(F)c2)coc2c1c(O)cc1occ(-c3cccc(F)c3)c(=O)c12
–	2.39	COc1ccc(CCN(C)CCCC(C#N)(c2ccc(OC)c(OC)c2)C(C)C)cc1OC (stereo not drawn) [VERAPAMIL]
1.04	0.9	O=c1c(-c2ccccc2)coc2cc3occ(-c4ccccc4)c(=O)c3c(O)c12
0.87	0.85	O=c1c(-c2cccc3ccccc23)coc2c1c(O)cc1occ(-c3cccc4ccccc34)c(=O)c12
1.33	1.19	O=c1c(-c2cccc(O)c2)coc2cc3occ(-c4cccc(O)c4)c(=O)c3c(O)c12
0.8	0.81	O=c1c(-c2ccc(Cl)c(Cl)c2)coc2c1c(O)cc1occ(-c3ccc(Cl)c(Cl)c3)c(=O)c12
1.58	2.04	Cc1ccc(-c2coc3c(c(O)cc4occ(-c5ccc(C)cc5)c(=O)c43)c2=O)cc1
1	0.85	COc1cccc(-c2coc3cc4occ(-c5cccc(OC)c5)c(=O)c4c(O)c3c2=O)c1
0.76	0.82	O=c1c(-c2ccc(Cl)cc2)coc2c1c(O)cc1occ(-c3ccc(Cl)cc3)c(=O)c12
0.76	0.81	O=c1c(-c2ccccc2C(F)(F)F)coc2c1c(O)cc1occ(-c3ccccc3C(F)(F)F)c(=O)c12
1.06	1.08	O=c1c(-c2ccc(Cl)cc2)coc2cc3occ(-c4ccc(Cl)cc4)c(=O)c3c(O)c12
1.04	1.29	O=c1c(-c2ccccc2)coc2c1c(O)cc1occ(-c3ccccc3)c(=O)c12
0.85	0.83	O=c1c(-c2ccccc2[N+](=O)[O-])coc2cc3occ(-c4ccccc4[N+](=O)[O-])c(=O)c3c(O)c12
0.86	0.93	Cc1cccc(-c2coc3cc4occ(-c5cccc(C)c5)c(=O)c4c(O)c3c2=O)c1
0.6	0.75	O=c1c(-c2cccc(F)c2)coc2cc3occ(-c4cccc(F)c4)c(=O)c3c(O)c12
1.27	1.18	O=c1c(-c2cccc(C(F)(F)F)c2)coc2cc3occ(-c4cccc(C(F)(F)F)c4)c(=O)c3c(O)c12

fold change (FC) [1]	fold change (FC) [2]	SMILES
0.76	0.75	COc1cc(-c2coc3c(c(O)cc4occ(-c5cc(OC)c(OC)c(OC)c5)c(=O)c43)c2=O)cc(OC)c1OC
0.92	0.84	O=c1c(-c2ccc(F)cc2)coc2c1c(O)cc1occ(-c3ccc(F)cc3)c(=O)c12
0.72	0.7	O=c1c(-c2ccc3c(c2)OCO3)coc2c1c(O)cc1occ(-c3ccc4c(c3)OCO4)c(=O)c12
0.83	0.82	O=c1c(-c2cccc(Cl)c2)coc2c1c(O)cc1occ(-c3cccc(Cl)c3)c(=O)c12
0.87	0.81	Cc1ccccc1-c1coc2cc3occ(-c4ccccc4C)c(=O)c3c(O)c2c1=O
0.87	0.9	O=c1c(-c2ccc(C(F)(F)F)cc2)coc2c1c(O)cc1occ(-c3ccc(C(F)(F)F)cc3)c(=O)c12
1.1	1.15	O=c1c(-c2cccc(C(F)(F)F)c2)coc2c1c(O)cc1occ(-c3cccc(C(F)(F)F)c3)c(=O)c12
0.72	0.64	O=c1c(-c2cccc3ccccc23)coc2cc3occ(-c4cccc5ccccc45)c(=O)c3c(O)c12
0.98	1.03	O=c1c(-c2ccccc2[N+](=O)[O-])coc2c1c(O)cc1occ(-c3ccccc3[N+](=O)[O-])c(=O)c12
0.61	0.67	O=c1c(-c2cccs2)coc2cc3occ(-c4cccs4)c(=O)c3c(O)c12
0.92	0.89	O=c1c(-c2ccccc2F)coc2cc3occ(-c4ccccc4F)c(=O)c3c(O)c12
0.71	0.85	O=c1c(-c2ccccc2Cl)coc2cc3occ(-c4ccccc4Cl)c(=O)c3c(O)c12
1.32	1.36	O=c1c(-c2ccccc2C(F)(F)F)coc2cc3occ(-c4ccccc4C(F)(F)F)c(=O)c3c(O)c12
0.95	1.06	O=c1c(-c2c(F)cccc2Cl)coc2cc3occ(-c4c(F)cccc4Cl)c(=O)c3c(O)c12
0.88	0.83	O=c1c(-c2cccs2)coc2c1c(O)cc1occ(-c3cccs3)c(=O)c12
0.85	1.3	O=c1c(-c2ccc(F)cc2)coc2cc3occ(-c4ccc(F)cc4)c(=O)c3c(O)c12
0.87	1.3	COc1ccc(-c2coc3cc4occ(-c5ccc(OC)cc5)c(=O)c4c(O)c3c2=O)cc1
1.01	0.99	O=c1c(-c2cccc(O)c2)coc2c1c(O)cc1occ(-c3cccc(O)c3)c(=O)c12
0.66	0.64	O=c1c(-c2c(F)cccc2Cl)coc2c1c(O)cc1occ(-c3c(F)cccc3Cl)c(=O)c12
0.88	0.75	O=c1c(-c2ccc([N+](=O)[O-])cc2)coc2c1c(O)cc1occ(-c3ccc([N+](=O)[O-])cc3)c(=O)c12
0.8	0.72	COc1cc(-c2coc3cc4occ(-c5cc(OC)c(OC)c(OC)c5)c(=O)c4c(O)c3c2=O)cc(OC)c1OC
0.8	0.63	O=c1c(C2CC2)coc2c1c(O)cc1occ(C3CC3)c(=O)c12
0.76	0.67	O=c1c(-c2ccccc2F)coc2c1c(O)cc1occ(-c3ccccc3F)c(=O)c12
